Assay results published in publication PMC5391968, “Comparison of cell-based assays for the identification and evaluation of competitive CXCR4 inhibitors” (PLoS ONE, 2017).
Where two headings read alike, the source gives them in different places. Where a SMILES comes first, the peptide text is derived from it. Bridges are numbered along the chain shown (N, C = ends). [ ]: non-standard residue; d: D form. 2Nal = N[C@@H](Cc1ccc2ccccc2c1)C(=O)O; Cit = NC(=O)NCCC[C@H](N)C(=O)O

Experiments:
[1] = biological target: T1, CXCR4 (Homo sapiens, UniProt P61073); assay: CXCR4 internalization assay in SUP-T1 cells; format: cell-based; set-up: CXCR4 receptors endogenously expressed on SUP-T1 cells; endogenous in cells; host or cells: SUP-T1 (ATCC); conditions: for induction of CXCR4 internalization (agonistic effect): in absence of CXCL12, data not shown
T1 sequence (P61073 whole entry): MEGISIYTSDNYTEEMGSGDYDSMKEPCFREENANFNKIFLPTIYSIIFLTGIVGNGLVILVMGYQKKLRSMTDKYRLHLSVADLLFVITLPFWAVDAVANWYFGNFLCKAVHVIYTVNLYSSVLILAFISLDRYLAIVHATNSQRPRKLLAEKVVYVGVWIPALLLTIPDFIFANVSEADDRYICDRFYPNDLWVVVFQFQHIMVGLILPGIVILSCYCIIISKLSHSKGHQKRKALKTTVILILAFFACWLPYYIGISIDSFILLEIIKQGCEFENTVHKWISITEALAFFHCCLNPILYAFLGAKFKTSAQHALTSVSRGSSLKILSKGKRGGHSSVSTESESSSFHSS
Protocol: T-lymphoblastic SUP-T1 cells were washed twice in DPBS containing 2% FBS. Afterwards, cells were first incubated with the PE-labeled rat anti-human CXCR4 mAb (clone 1D9; 2 μg/ml in DPBS/2% FBS; BD Pharmingen) on ice for 45 minutes. […] SUP-T1 cells were subsequently washed once with ice cold DPBS and twice with ice cold assay buffer (see above) before being treated with test compound on ice for 15 minutes. […] Samples were immediately analyzed with the FACSCalibur flow cytometer (Becton Dickinson) whereby the measured fluorescence corresponds to the amount of […] CXCR4 receptors. Data were further analyzed with the FlowJo software.

[2] = tested on: HIV-1 NL4-3 (X4); assay: microbe, parasite or virus in culture; format: cell-based
Protocol: The anti-HIV replication assays in MT-4 cells and PHA-stimulated PBMCs have been described previously. The HIV-1 T-tropic molecular clone NL4-3 (X4) was obtained from the National Institute of Allergy and Infectious Disease (NIAID) AIDS reagent program (Bethesda, MD, USA). Briefly, 5x10^4 MT-4 cells (in cell culture medium) were treated with different concentrations of compound at 37°C for 30 minutes. Afterwards, a 50% tissue culture infectious dose of the NL4-3 viral stock was added to the cell-compound mixtures. Four days post infection, the cytopathic effect was evaluated microscopically and cell viability was assessed with the MTS method, as described above.
In the antiviral assays, each condition was tested in duplicate.

[3] = tested on: CXCR4-positive Jurkat cells; assay: cells; format: cell-based, human
Protocol: Jurkat cells were washed twice in assay buffer (see above), dispensed into a 96-well plate (5x10^5 cells per well) containing serial dilutions of compounds (in assay buffer) and incubated at RT in the dark for 10 minutes. […] Suspensions of 1.87x10^4 cells were transferred to the chemotaxis insert plate. […] After removal of the insert plate, migrated cells were centrifuged and resuspended in DPBS containing flow cytometry cell counting beads ([…] Fluorescent Particles; Gentaur, London, UK). Both migrated cells and particles were counted by flow cytometry (FACSCanto II; Becton Dickinson). Each compound concentration was tested in triplicate. Data were analyzed using the FlowJo software and the total number of migrated cells was calculated, according to the counted and total number of beads present in the sample.

[4] = tested on: HIV-1 NL4-3 (X4); assay: microbe, parasite or virus in culture; format: cell-based; remark: listed apart in the source
Protocol: PHA-stimulated PBMCs at 5x10^5 cells per sample, pre-incubated with test compounds dissolved in cell culture medium containing IL-2 (2 ng/ml; […] After three days, fresh culture medium with IL-2 was added. Ten days post infection cell supernatant was collected for HIV-1 p24 core antigen enzyme-linked immunosorbent assay (ELISA; Perkin Elmer, Boston, MA, USA) according to the manufacturer’s protocol. In the antiviral assays, each condition was tested in duplicate.

[5] = biological target: T1, CXCR4; assay: CXCL12^AF647 binding assay on Jurkat cells; conditions: read-out: IC50 CXCL12-CXCR4 binding interaction
Protocol: In brief, Jurkat cells were washed twice in assay buffer [Hank’s Balanced Salt Solution (HBSS; Thermo Fisher Scientific), 20 mM HEPES buffer (Thermo Fisher Scientific), 0.2% bovine serum albumin (Sigma-Aldrich), pH 7.4]. […] Afterwards, cells were washed twice in assay buffer and subsequently fixed in 1% paraformaldehyde in Dulbecco’s phosphate buffered saline (DPBS). Samples were analyzed with the FACSArray flow cytometer (Becton Dickinson, NJ, USA). Data were further analyzed with the FlowJo Software (Ashland, Oregon, USA).

[6] = in vitro; format: cell-based; conditions: human
Protocol: (§1) Jurkat cells (3x10^5 cells per well in culture medium) were incubated with serial dilutions of compound at room temperature (RT) for two hours. Cytotoxicity of the compounds was also evaluated at 37°C over a longer period of time in MT-4 cells (5x10^4 cells per well in culture medium, four day incubation) and PHA-stimulated PBMCs (5x10^5 cells per well in culture medium, ten day incubation) because these cell types were used in anti-HIV activity assays which last up to ten days (see below). Each condition was tested in duplicate. Cytotoxicity was evaluated microscopically and, in addition, cell viability was assessed using the colorimetric CellTiter 96 AQueous One Solution Cell Proliferation Assay (Promega, Fitchburg, WI, USA), which is based on the reduction of the tetrazolium salt MTS [3-(4,5-dimethylthiazol-2-yl)-5-(3-carboxymethoxyphenyl)-2-(4-sulfophenyl)-2H-tetrazolium] to formazan by metabolically active cells. Absorbance at 490 nm was measured with the VersaMax ELISA Microplate Reader (Molecular Devices, Sunnyvale, CA, USA). The cytotoxic concentration 50 (CC50) of each compound was calculated based on the absorbance of negative (i.e. cells without compound) and positive (i.e. only culture medium) control samples.

[7] = in vitro; format: cell-based; conditions: human; remark: listed apart in the source
Protocol: Freshly isolated peripheral blood mononuclear cells (PBMCs) were isolated out of buffy coats from healthy donors (Red Cross, Belgium). They were cultured in RPMI medium with 10% FBS, 2 mM L-glutamine and stimulated with 2 μg/ml phytohemagglutinin (PHA; Sigma-Aldrich) for three days before use in the HIV replication assays (see below).
as §1, with “The cytotoxic concentration 50 (CC50) of each compound was calculated based on the absorbance of negative (i.e. cells without compound) and positive (i.e. only culture medium) control samples.” left out

[8] = biological target: T1, CXCR4; assay: Calcium mobilization assay (FLIPR Tetra) in U87.CD4.CXCR4 cells; format: cell-based; conditions: read-out: IC50 Calcium signaling (CXCL12-induced)
Protocol: U87.CD4.CXCR4 cells were seeded at 2x10^4 cells per well in gelatin-coated black-walled 96-well plates [0.1% gelatin in DPBS, incubated at RT for two hours and washed once with DPBS] and incubated at 37°C and 5% CO2 overnight. […] Fluo-2 AM loaded cells were washed with assay buffer before being incubated in the FLIPR Tetra system at 37°C for five minutes. At the start of the kinetic measurement, compounds were added to the cell plate by the internal robotic system followed by an incubation period of 10 minutes during which changes in the intracellular calcium level were continuously measured by the FLIPR Tetra. […] Each condition was measured in triplicate and repeated several times as further indicated (see Results).

[9] = biological target: T2, CXCR7 (Homo sapiens, UniProt P25106); assay: CXCL12 binding on CXCR7-transfected U87 cells (U87.CD4.CXCR7); conditions: data not shown
T2 construct: expressed in transfected cells; host or cells: U87.CD4 cells transfected with pTEJ-8 plasmid carrying human CXCR7 cDNA
T2 sequence (P25106 whole entry): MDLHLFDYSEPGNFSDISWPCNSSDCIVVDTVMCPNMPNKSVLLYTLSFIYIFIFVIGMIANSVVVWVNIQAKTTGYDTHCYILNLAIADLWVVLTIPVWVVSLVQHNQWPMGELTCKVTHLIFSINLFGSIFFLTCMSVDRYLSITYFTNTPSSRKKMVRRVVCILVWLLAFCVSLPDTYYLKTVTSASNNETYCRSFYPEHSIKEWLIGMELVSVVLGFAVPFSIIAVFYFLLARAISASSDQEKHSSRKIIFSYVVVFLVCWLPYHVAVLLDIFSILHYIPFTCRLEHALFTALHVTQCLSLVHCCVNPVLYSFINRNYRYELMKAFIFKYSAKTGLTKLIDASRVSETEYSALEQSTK

[10] = Human immunodeficiency virus 1, NL43, MT4, 96 h, MT-4 cells, four days post infection, MTS, mean ± SEM, read-out: IC50 HIV-1 (X4) NL4-3 replication, MT-4 cells
[11] = Homo sapiens, Jurkat, 2 h, read-out: IC50 Chemotaxis
[12] = Human immunodeficiency virus 1, NL43, PBMC, 240 h, PHA-stimulated PBMCs, ten days post infection, p24 Ag ELISA, mean ± SEM, read-out: IC50 HIV-1 (X4) NL4-3 replication, PHA-stimulated PBMCs

SMILES | induction of CXCR4 internalization (agonistic effect) ([1]; 50 μM) | IC50 ([2]; NL4-3 (X4)) [nM] | IC50 ([4]; NL4-3 (X4)) [nM] | IC50 [2, 10] [nM] | IC50 [3, 11] [nM] | IC50 [4, 12] [nM] | further results
N=C(N)NCCC[C@H](NC(=O)[C@@H]1CSSC[C@H](NC(=O)[C@H](Cc2c[nH]c3ccccc23)NC(=O)[C@H](CCCNC(=N)N)NC(=O)[C@@H](N)CCCNC(=N)N)C(=O)N[C@@H](Cc2ccc(O)cc2)C(=O)N[C@@H](CCCNC(=N)N)C(=O)N[C@@H](CCCCN)C(=O)N[C@H]2CSSC[C@H](NC(=O)[C@H](Cc3ccc(O)cc3)NC(=O)CNC(=O)[C@H](CCCCN)NC(=O)[C@H](Cc3ccc(O)cc3)NC2=O)C(=O)N[C@@H](Cc2ccc(O)cc2)C(=O)N[C@@H](CCCNC(=N)N)C(=O)N[C@@H](CCCCN)C(=O)N1)C(N)=O [T22, (Tyr^5.12,Lys^7)-Polyphemusin II] (H-RRWCYRKCYKGYCYRKCR-NH2; disulfide 4-17, 8-13 (inferred); N-terminus and C-terminus assumed) | absence of an agonistic effect |  |  |  |  |  | 
N=C(N)NCCC[C@H](NC(=O)[C@@H]1CSSC[C@H](NC(=O)[C@H](Cc2ccc3ccccc3c2)NC(=O)[C@H](CCCNC(=N)N)NC(=O)[C@@H](N)CCCNC(=N)N)C(=O)N[C@@H](Cc2ccc(O)cc2)C(=O)N[C@@H](CCCNC(=N)N)C(=O)N[C@@H](CCCCN)C(=O)N[C@H](CCCCN)C(=O)N2CCC[C@H]2C(=O)N[C@@H](Cc2ccc(O)cc2)C(=O)N[C@@H](CCCNC(=N)N)C(=O)N[C@@H](CCCNC(N)=O)C(=O)N1)C(=O)O [T140] (H-RR[2Nal]CYRK[dK]PYR[Cit]CR-OH; disulfide 4-13 (inferred); N-terminus and C-terminus assumed) | absence of an agonistic effect | 13.5 ± 7.1 | 10.4 ± 4.8 |  |  |  | IC50 [3]: 73.7 ± 26 nM
CC(C)=CCC[C@]1(C)C=Cc2c(O)c3c(c(CC=C(C)C)c2O1)O[C@]12C(=C[C@@H]4C[C@H]1C(C)(C)O[C@@]2(C/C=C(/C)C(=O)O)C4=O)C3=O [gambogic acid] |  |  |  | > 376 | 1890 | > 225 | IC50 [5]: 7.06 µM; CC50 at 2 h [6]: 10 µM; CC50 at 4 days [6]: ~300 nM; CC50 at 10 days [7]: ~300 nM; IC50 [1]: > 10 µM; induction of CXCR4 internalization (agonistic effect) ([1]; 10 μM): absence of an agonistic effect; IC50 [8]: 4.37 µM
N=C(N)NCCC[C@H](NC(=O)[C@@H]1CSSC[C@H](NC(=O)[C@H](Cc2ccc3ccccc3c2)NC(=O)[C@H](CCCNC(=N)N)NC(=O)[C@@H](N)CCCNC(=N)N)C(=O)N[C@@H](Cc2ccc(O)cc2)C(=O)N[C@@H](CCCNC(N)=O)C(=O)N[C@@H](CCCCN)C(=O)N[C@H](CCCNC(N)=O)C(=O)N2CCC[C@H]2C(=O)N[C@@H](Cc2ccc(O)cc2)C(=O)N[C@@H](CCCNC(=N)N)C(=O)N[C@@H](CCCNC(N)=O)C(=O)N1)C(N)=O [TC14012] | absence of an agonistic effect | 7.2 ± 2.3 | 9.3 ± 4 |  |  |  | inhibition of CXCL12 binding on CXCR7 [9]: reduced CXCL12 binding on CXCR7 in the lower micromolar range; inhibition of migration ([3]; pretreated at concentrations as low as 200 nM): total inhibition of migration
c1cc(CN2CCCNCCNCCCNCC2)ccc1CN1CCCNCCNCCCNCC1 [AMD3100] | absence of an agonistic effect |  |  | 11.8 ± 3.4 | 1430 | 14.9 ± 3.2 | 
CC1(C)CN2C(CSC(=NC3CCCCC3)NC3CCCCC3)=CSC2=N1 [IT1t] |  |  |  |  |  |  | IC50 ([2]; MT-4 cells, four days post infection, MTS, mean ± SEM, read-out: IC50 HIV-1 (X4) NL4-3 replication, MT-4 cells): 14.2 ± 5.3 nM; IC50 ([3]; Jurkat cells, 6.25 nM CXCL12, two hours, mean ± SEM, read-out: IC50 Chemotaxis): 79.1 ± 9.6 nM; IC50 ([4]; PHA-stimulated PBMCs, ten days post infection, p24 Ag ELISA, mean ± SEM, read-out: IC50 HIV-1 (X4) NL4-3 replication, PHA-stimulated PBMCs): 19 ± 2.3 nM
